# Test results from patent US8895282B2, “Use of a substance for manufacturing of a medicament for treatment of common cold” (Tanomed AB, priority 2008, dated 2014).
# Where “and” joins values, the source holds several entries; their conditions need not be identical. Equal entries are not always repeated. Where two headings read alike, the source gives them in different places.
# Key:
# Rhinovirus 7 [1] = tested on: Rhinovirus 7
# Description: Virus: Rhinovirus 7, purchased from ATCC (VR-1117), was used as a representative for the rhinovirus group. In the assays the dilutions 10^−2 and 10^−3 were used. […] 0.3 ml of each dilution was added into the vials.
# (§1) Cell culture: Human lung cell fibroblasts (WI 38, ATCC-CCL-75) was used for cytopathic effect detection. 10-fold serial dilutions had been made from the concentrated viral suspension. […] Then the media was changed to RPMI with 2% of fetal calf serum, which was preserved during the assay. The cells were incubated in CO2enriched air at 37° C. During the experiments a cell culture of 17th-18^thpassage was used.
# Catalase: From Sigma-Aldrich™. A solution of 100 000 U/ml was prepared from the original solution of 10^6 U/ml.
# H2O2: a 20% solution was diluted in Phosphate buffered saline (PBS) to a 0.5% and a 0.05% solution. 0.1 ml was added to the vials, which means 0.05% or 0.005% in the vials.
# A solution of 200 U/ml and 600 U/ml was prepared from the original solution of 6000 U/ml.
# In order to evaluate whether the effect of the hydrogen peroxide was a direct effect on the virus itself or a cytoprotective effect, we preincubated the virus with the hydrogen peroxide, before it was transferred to the wells with the cells. The WI 38 cells are also sensitive to hydrogen peroxide, and therefore it was necessary to add catalase before inoculation into the wells. […] This design would also reveal if the inhibitory effect was only a virostatic one, or if it could damage the virions irreversibly.
# (§2) In table 1 the content of each of the 10 vials (Eppendorf) is listed. The vials were incubated in a heater keeping a stable temperature of 37° C. 1000 U of catalase was added after 15, 30 and 60 min of incubation. 2×50 μl from each vial was transferred to duplicate cell wells (a 96-well plate).
# WI 38 cells [2] = tested on: WI 38 cells
# Description: as §1, §2
# Rhinovirus 7 [3] = details: b7: RV7 preincubated 30 min with 0.01% hydrogen peroxide, then catalase
# Description: (§3) Virus concentration=dil 2. Incubation during 30 min in heater keeping 37° C. After 30 min the effect of the hydrogen peroxide is aborted with the addition of 0.1 ml catalase solution into the vial (=1 kU/ml). • 0.7 ml 5% glucose solution+0.1 ml dil 1 of RV7 (=a7) or RV8 (=a8)+0.1 ml of the hydrogen peroxide solution (=final concentration in the vial=[…]). Incubation and abortion of the hydrogen peroxide effect similar as in a).
# (§4) Altogether 4 vials (Eppendorff): a7, a8, b7 and b8.
# (§5) After the addition of catalase, samples are transferred to a 96-well plate with flat bottom according to table 3.
# Rhinovirus 8 = details: 50 μl b8: RV8 preincubated 30 min with 0.01% hydrogen peroxide, then catalase
# Description: as §3, §4, §5
# WI 38 cells [4] = tested on: WI 38 cells; remark: listed apart in the source
# Description: as §3, §5
# [5] = 0.005% H2O2, RV 7 dil 10^−2, preincubation 15 min
# [6] = 0.005% H2O2, RV 7 dil 10^−2, preincubation 30 min
# [7] = 0.005% H2O2, RV 7 dil 10^−2, preincubation 60 min
# [8] = 0.005% H2O2, RV 7 dil 10^−3, preincubation 15 min
# [9] = 0.005% H2O2, RV 7 dil 10^−3, preincubation 30 min
# [10] = 0.005% H2O2, RV 7 dil 10^−3, preincubation 60 min
# [11] = 0.05% H2O2, RV 7 dil 10^−2, preincubation 15 min
# [12] = 0.05% H2O2, RV 7 dil 10^−2, preincubation 30 min
# [13] = 0.05% H2O2, RV 7 dil 10^−2, preincubation 60 min
# [14] = 0.05% H2O2, RV 7 dil 10^−3, preincubation 15 min
# [15] = 0.05% H2O2, RV 7 dil 10^−3, preincubation 30 min
# [16] = 0.05% H2O2, RV 7 dil 10^−3, preincubation 60 min
smiles,measurement,setting,value
"OO [H2O2, hydrogen peroxide]",Inactivation of RV 7,"Rhinovirus 7 [1]; 0.005% (2 mM) hydrogen peroxide, higher concentration of RV 7",not able to inactivate
same,Day 3 (cytopathic effect of RV 7 on WI 38 cells),Rhinovirus 7 [1]; [5],+
same,Day 5 (cytopathic effect of RV 7 on WI 38 cells),Rhinovirus 7 [1]; [5],++
same,Day 7 (cytopathic effect of RV 7 on WI 38 cells),Rhinovirus 7 [1]; [5],++
same,Day 3 (cytopathic effect of RV 7 on WI 38 cells),Rhinovirus 7 [1]; [6],+
same,Day 5 (cytopathic effect of RV 7 on WI 38 cells),Rhinovirus 7 [1]; [6],+
same,Day 7 (cytopathic effect of RV 7 on WI 38 cells),Rhinovirus 7 [1]; [6],++
same,Day 3 (cytopathic effect of RV 7 on WI 38 cells),Rhinovirus 7 [1]; [7],+
same,Day 5 (cytopathic effect of RV 7 on WI 38 cells),Rhinovirus 7 [1]; [7],+
same,Day 7 (cytopathic effect of RV 7 on WI 38 cells),Rhinovirus 7 [1]; [7],+
same,Day 3 (cytopathic effect of RV 7 on WI 38 cells),Rhinovirus 7 [1]; [8],−
same,Day 5 (cytopathic effect of RV 7 on WI 38 cells),Rhinovirus 7 [1]; [8],+
same,Day 7 (cytopathic effect of RV 7 on WI 38 cells),Rhinovirus 7 [1]; [8],+
same,Day 3 (cytopathic effect of RV 7 on WI 38 cells),Rhinovirus 7 [1]; [9],−
same,Day 5 (cytopathic effect of RV 7 on WI 38 cells),Rhinovirus 7 [1]; [9],−
same,Day 7 (cytopathic effect of RV 7 on WI 38 cells),Rhinovirus 7 [1]; [9],−
same,Day 3 (cytopathic effect of RV 7 on WI 38 cells),Rhinovirus 7 [1]; [10],−
same,Day 5 (cytopathic effect of RV 7 on WI 38 cells),Rhinovirus 7 [1]; [10],−
same,Day 7 (cytopathic effect of RV 7 on WI 38 cells),Rhinovirus 7 [1]; [10],−
same,Inactivation of RV 7,"Rhinovirus 7 [1]; 0.005% hydrogen peroxide, 60 min of incubation, RV 7 10^−3 dilution",able to inactivate
same,Inactivation of RV 7,"Rhinovirus 7 [1]; 0.05% (20 mM) H2O2, all RV 7 concentrations, already after 15 min of incubation",able to inactivate
same,Day 3 (cytopathic effect of RV 7 on WI 38 cells),Rhinovirus 7 [1]; [11],−
same,Day 5 (cytopathic effect of RV 7 on WI 38 cells),Rhinovirus 7 [1]; [11],−
same,Day 7 (cytopathic effect of RV 7 on WI 38 cells),Rhinovirus 7 [1]; [11],−
same,Day 3 (cytopathic effect of RV 7 on WI 38 cells),Rhinovirus 7 [1]; [12],−
same,Day 5 (cytopathic effect of RV 7 on WI 38 cells),Rhinovirus 7 [1]; [12],−
same,Day 7 (cytopathic effect of RV 7 on WI 38 cells),Rhinovirus 7 [1]; [12],−
same,Day 3 (cytopathic effect of RV 7 on WI 38 cells),Rhinovirus 7 [1]; [13],−
same,Day 5 (cytopathic effect of RV 7 on WI 38 cells),Rhinovirus 7 [1]; [13],−
same,Day 7 (cytopathic effect of RV 7 on WI 38 cells),Rhinovirus 7 [1]; [13],−
same,Day 3 (cytopathic effect of RV 7 on WI 38 cells),Rhinovirus 7 [1]; [14],−
same,Day 5 (cytopathic effect of RV 7 on WI 38 cells),Rhinovirus 7 [1]; [14],−
same,Day 7 (cytopathic effect of RV 7 on WI 38 cells),Rhinovirus 7 [1]; [14],−
same,Day 3 (cytopathic effect of RV 7 on WI 38 cells),Rhinovirus 7 [1]; [15],−
same,Day 5 (cytopathic effect of RV 7 on WI 38 cells),Rhinovirus 7 [1]; [15],−
same,Day 7 (cytopathic effect of RV 7 on WI 38 cells),Rhinovirus 7 [1]; [15],−
same,Day 3 (cytopathic effect of RV 7 on WI 38 cells),Rhinovirus 7 [1]; [16],−
same,Day 5 (cytopathic effect of RV 7 on WI 38 cells),Rhinovirus 7 [1]; [16],−
same,Day 7 (cytopathic effect of RV 7 on WI 38 cells),Rhinovirus 7 [1]; [16],−
same,Reversibility of the inactivation of RV 7,"Rhinovirus 7 [1]; Glucose Oxidase or 0.05% hydrogen peroxide solution, 7 days of incubation, no sign of recovery",irreversible
same,"Day 3 (toxic effect on WI 38 cells, control)",WI 38 cells [2],TOX
same,"Day 5 (toxic effect on WI 38 cells, control)",WI 38 cells [2],TOX
same,"Day 7 (toxic effect on WI 38 cells, control)",WI 38 cells [2],TOX
same,Toxic effect on WI 38 cells,WI 38 cells [2],severe toxic effect
same,Infection of WI 38 cells after 2 days of inoculation,Rhinovirus 7 [3],1+
same,Infection of WI 38 cells after 10 days of inoculation,Rhinovirus 7 [3],1+ and 2+
same,Infection of WI 38 cells after 2 days of inoculation,Rhinovirus 8,1+
same,Infection of WI 38 cells after 10 days of inoculation,Rhinovirus 8,3+
same,Effect on WI 38 cells after 2 days,WI 38 cells [4],Tox
same,Effect on WI 38 cells after 10 days,WI 38 cells [4],tox
